# Experimental data reported in article PMC8224398, “SARS-CoV-2 mutations in MHC-I-restricted epitopes evade CD8^+ T cell responses” (Science Immunology, 2021).
# Tested on: CD8+ T cells in PBMCs of COVID-19 patients
# Assay type: cell-based, human
sequence,measurement,value
YFQPRTFLL [YLQ mutant],wild type tetramer-positive CD8+ T cells after expansion with mutant versus wild type peptide (in words),reduced numbers of YLQ tetramer positive cells
